In patent US12281080B2, “Quinoline-based compounds and methods of inhibiting CDK8/19” (University of South Carolina, priority 2018, dated 2025):

Columns and labels:
TTK = TTK (Homo sapiens (Human), UniProt P33981); test: KINOMEscan scanMAX; assay type: binding; settings: 2000 nM; read-out: Percent Control
BMPR1B = BMPR1B (Homo sapiens (Human), UniProt O00238); test: KINOMEscan scanMAX; assay type: binding; settings: 2000 nM; read-out: Percent Control
TSSK1B = TSSK1B (Homo sapiens (Human), UniProt Q9BXA7); test: KINOMEscan scanMAX; assay type: binding; settings: 2000 nM; read-out: Percent Control
RIPK2 = RIPK2 (Homo sapiens (Human), UniProt O43353); test: KINOMEscan scanMAX; assay type: binding; settings: 2000 nM; read-out: Percent Control
[1] = target: ABL1(F317I)-nonphosphorylated (Homo sapiens (Human), UniProt P00519, F317I); test: KINOMEscan scanMAX; assay type: binding; settings: 2000 nM; read-out: Percent Control
WNK1 = WNK1 (Homo sapiens (Human), UniProt Q9H4A3); test: KINOMEscan scanMAX; assay type: binding; settings: 2000 nM; read-out: Percent Control
PKN1 = PKN1 (Homo sapiens (Human), UniProt Q16512); test: KINOMEscan scanMAX; assay type: binding; settings: 2000 nM; read-out: Percent Control
TESK1 = TESK1 (Homo sapiens (Human), UniProt Q15569); test: KINOMEscan scanMAX; assay type: binding; settings: 2000 nM; read-out: Percent Control
EPHA4 = EPHA4 (Homo sapiens (Human), UniProt P54764); test: KINOMEscan scanMAX; assay type: binding; settings: 2000 nM; read-out: Percent Control
STK39 = STK39 (Homo sapiens (Human), UniProt Q9UEW8); test: KINOMEscan scanMAX; assay type: binding; settings: 2000 nM; read-out: Percent Control
VPS34 (PIK3C3) = VPS34 (PIK3C3) (Homo sapiens (Human), UniProt Q8NEB9); test: KINOMEscan scanMAX; assay type: binding; settings: 2000 nM; read-out: Percent Control
AMPK-alpha1 (PRKAA1) = AMPK-alpha1 (PRKAA1) (Homo sapiens (Human), UniProt Q13131); test: KINOMEscan scanMAX; assay type: binding; settings: 2000 nM; read-out: Percent Control
FLT3-autoinhibited = FLT3-autoinhibited (Homo sapiens (Human), UniProt P36888); test: KINOMEscan scanMAX; assay type: binding; settings: 2000 nM; read-out: Percent Control
AXL = AXL (Homo sapiens (Human), UniProt P30530); test: KINOMEscan scanMAX; assay type: binding; settings: 2000 nM; read-out: Percent Control
GRK3 (ADRBK2) = GRK3 (ADRBK2) (Homo sapiens (Human), UniProt P35626); test: KINOMEscan scanMAX; assay type: binding; settings: 2000 nM; read-out: Percent Control
VEGFR2 (KDR) = VEGFR2 (KDR) (Homo sapiens (Human), UniProt P35968); test: KINOMEscan scanMAX; assay type: binding; settings: 2000 nM; read-out: Percent Control
PRKD2 = PRKD2 (Homo sapiens (Human), UniProt Q9BZL6); test: KINOMEscan scanMAX; assay type: binding; settings: 2000 nM; read-out: Percent Control
CDK8 = CDK8 (Homo sapiens (Human), UniProt P49336); test: DiscoverX Kd assay
AURKB = AURKB (Homo sapiens (Human), UniProt Q96GD4); test: KINOMEscan scanMAX; assay type: binding; settings: 2000 nM; read-out: Percent Control
TRKB (NTRK2) = TRKB (NTRK2) (Homo sapiens (Human), UniProt Q16620); test: KINOMEscan scanMAX; assay type: binding; settings: 2000 nM; read-out: Percent Control
MRCKA (CDC42BPA) = MRCKA (CDC42BPA) (Homo sapiens (Human), UniProt Q5VT25); test: KINOMEscan scanMAX; assay type: binding; settings: 2000 nM; read-out: Percent Control
LATS1 = LATS1 (Homo sapiens (Human), UniProt O95835); test: KINOMEscan scanMAX; assay type: binding; settings: 2000 nM; read-out: Percent Control
PRKG2 = PRKG2 (Homo sapiens (Human), UniProt Q13237); test: KINOMEscan scanMAX; assay type: binding; settings: 2000 nM; read-out: Percent Control
PIK3CA(E545A) = PIK3CA(E545A) (Homo sapiens (Human), UniProt P42336, E545A); test: KINOMEscan scanMAX; assay type: binding; settings: 2000 nM; read-out: Percent Control
BLK = BLK (Homo sapiens (Human), UniProt P51451); test: KINOMEscan scanMAX; assay type: binding; settings: 2000 nM; read-out: Percent Control
MARK1 = MARK1 (Homo sapiens (Human), UniProt Q9P0L2); test: KINOMEscan scanMAX; assay type: binding; settings: 2000 nM; read-out: Percent Control
CDC2L1 (CDK11B) = CDC2L1 (CDK11B) (Homo sapiens (Human), UniProt P21127); test: KINOMEscan scanMAX; assay type: binding; settings: 2000 nM; read-out: Percent Control
ERK5 (MAPK7) = ERK5 (MAPK7) (Homo sapiens (Human), UniProt Q13164); test: KINOMEscan scanMAX; assay type: binding; settings: 2000 nM; read-out: Percent Control
PRKCE = PRKCE (Homo sapiens (Human), UniProt Q02156); test: KINOMEscan scanMAX; assay type: binding; settings: 2000 nM; read-out: Percent Control
MKNK2 = MKNK2 (Homo sapiens (Human), UniProt Q9HBH9); test: KINOMEscan scanMAX; assay type: binding; settings: 2000 nM; read-out: Percent Control
MEK3 (MAP2K3) = MEK3 (MAP2K3) (Homo sapiens (Human), UniProt P46734); test: KINOMEscan scanMAX; assay type: binding; settings: 2000 nM; read-out: Percent Control
TAOK2 = TAOK2 (Homo sapiens (Human), UniProt Q9UL54); test: KINOMEscan scanMAX; assay type: binding; settings: 2000 nM; read-out: Percent Control
RET = RET (Homo sapiens (Human), UniProt P07949); test: KINOMEscan scanMAX; assay type: binding; settings: 2000 nM; read-out: Percent Control
BRAF = BRAF (Homo sapiens (Human), UniProt P15056); test: KINOMEscan scanMAX; assay type: binding; settings: 2000 nM; read-out: Percent Control
MAP3K2 = MAP3K2 (Homo sapiens (Human), UniProt Q9Y2U5); test: KINOMEscan scanMAX; assay type: binding; settings: 2000 nM; read-out: Percent Control
FLT3(D835Y) = FLT3(D835Y) (Homo sapiens (Human), UniProt P36888, D835Y); test: KINOMEscan scanMAX; assay type: binding; settings: 2000 nM; read-out: Percent Control
[2] = target: ABL1(E255K)-phosphorylated (Homo sapiens (Human), UniProt P00519, E255K); test: KINOMEscan scanMAX; assay type: binding; settings: 2000 nM; read-out: Percent Control
CDK8/19 = test: Wash-off assay, MYC and JUN expression in 293 cells (QPCR); assay type: cell-based, human; settings: 1 μM for 2 hours, then wash-off; MYC and JUN
Protocol: RNA was extracted at different time points after wash-off (up to 24 hrs) and expression of MYC and JUN genes that are CDK8/19-dependent in these cells was measured by QPCR. […] In contrast, after Senexin C treatment and wash-off, the effects of Senexin C were largely retained for at least 6 hrs after wash-off.

LATS1, sequence (O95835 whole entry): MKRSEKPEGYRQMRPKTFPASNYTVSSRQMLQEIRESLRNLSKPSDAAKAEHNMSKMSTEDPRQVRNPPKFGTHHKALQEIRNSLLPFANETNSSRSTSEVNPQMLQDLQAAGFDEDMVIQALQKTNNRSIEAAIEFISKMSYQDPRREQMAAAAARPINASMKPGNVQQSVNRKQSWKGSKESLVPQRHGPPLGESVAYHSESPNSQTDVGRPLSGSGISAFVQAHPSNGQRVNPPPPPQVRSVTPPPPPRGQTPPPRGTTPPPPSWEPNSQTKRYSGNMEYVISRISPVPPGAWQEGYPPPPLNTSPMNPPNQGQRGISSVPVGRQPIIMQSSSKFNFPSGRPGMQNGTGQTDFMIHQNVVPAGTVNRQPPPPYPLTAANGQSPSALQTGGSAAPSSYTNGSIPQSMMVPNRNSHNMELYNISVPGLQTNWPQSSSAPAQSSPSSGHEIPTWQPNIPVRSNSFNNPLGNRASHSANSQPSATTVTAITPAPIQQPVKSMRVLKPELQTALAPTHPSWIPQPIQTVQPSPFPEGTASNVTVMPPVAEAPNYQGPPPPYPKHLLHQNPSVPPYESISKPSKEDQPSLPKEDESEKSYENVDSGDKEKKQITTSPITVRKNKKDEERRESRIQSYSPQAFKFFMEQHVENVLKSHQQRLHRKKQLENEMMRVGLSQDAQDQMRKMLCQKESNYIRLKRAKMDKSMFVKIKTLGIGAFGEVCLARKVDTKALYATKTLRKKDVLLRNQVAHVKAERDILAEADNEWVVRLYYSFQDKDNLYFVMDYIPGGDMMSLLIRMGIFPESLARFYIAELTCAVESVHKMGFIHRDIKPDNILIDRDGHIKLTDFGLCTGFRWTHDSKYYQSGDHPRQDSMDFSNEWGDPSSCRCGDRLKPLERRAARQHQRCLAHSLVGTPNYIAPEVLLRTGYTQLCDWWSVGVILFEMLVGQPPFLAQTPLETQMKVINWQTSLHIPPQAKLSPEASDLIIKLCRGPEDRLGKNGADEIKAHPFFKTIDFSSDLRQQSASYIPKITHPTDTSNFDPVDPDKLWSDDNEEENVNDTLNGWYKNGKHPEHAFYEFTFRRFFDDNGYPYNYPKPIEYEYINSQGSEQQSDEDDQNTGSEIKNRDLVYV
MRCKA (CDC42BPA), sequence (Q5VT25 whole entry): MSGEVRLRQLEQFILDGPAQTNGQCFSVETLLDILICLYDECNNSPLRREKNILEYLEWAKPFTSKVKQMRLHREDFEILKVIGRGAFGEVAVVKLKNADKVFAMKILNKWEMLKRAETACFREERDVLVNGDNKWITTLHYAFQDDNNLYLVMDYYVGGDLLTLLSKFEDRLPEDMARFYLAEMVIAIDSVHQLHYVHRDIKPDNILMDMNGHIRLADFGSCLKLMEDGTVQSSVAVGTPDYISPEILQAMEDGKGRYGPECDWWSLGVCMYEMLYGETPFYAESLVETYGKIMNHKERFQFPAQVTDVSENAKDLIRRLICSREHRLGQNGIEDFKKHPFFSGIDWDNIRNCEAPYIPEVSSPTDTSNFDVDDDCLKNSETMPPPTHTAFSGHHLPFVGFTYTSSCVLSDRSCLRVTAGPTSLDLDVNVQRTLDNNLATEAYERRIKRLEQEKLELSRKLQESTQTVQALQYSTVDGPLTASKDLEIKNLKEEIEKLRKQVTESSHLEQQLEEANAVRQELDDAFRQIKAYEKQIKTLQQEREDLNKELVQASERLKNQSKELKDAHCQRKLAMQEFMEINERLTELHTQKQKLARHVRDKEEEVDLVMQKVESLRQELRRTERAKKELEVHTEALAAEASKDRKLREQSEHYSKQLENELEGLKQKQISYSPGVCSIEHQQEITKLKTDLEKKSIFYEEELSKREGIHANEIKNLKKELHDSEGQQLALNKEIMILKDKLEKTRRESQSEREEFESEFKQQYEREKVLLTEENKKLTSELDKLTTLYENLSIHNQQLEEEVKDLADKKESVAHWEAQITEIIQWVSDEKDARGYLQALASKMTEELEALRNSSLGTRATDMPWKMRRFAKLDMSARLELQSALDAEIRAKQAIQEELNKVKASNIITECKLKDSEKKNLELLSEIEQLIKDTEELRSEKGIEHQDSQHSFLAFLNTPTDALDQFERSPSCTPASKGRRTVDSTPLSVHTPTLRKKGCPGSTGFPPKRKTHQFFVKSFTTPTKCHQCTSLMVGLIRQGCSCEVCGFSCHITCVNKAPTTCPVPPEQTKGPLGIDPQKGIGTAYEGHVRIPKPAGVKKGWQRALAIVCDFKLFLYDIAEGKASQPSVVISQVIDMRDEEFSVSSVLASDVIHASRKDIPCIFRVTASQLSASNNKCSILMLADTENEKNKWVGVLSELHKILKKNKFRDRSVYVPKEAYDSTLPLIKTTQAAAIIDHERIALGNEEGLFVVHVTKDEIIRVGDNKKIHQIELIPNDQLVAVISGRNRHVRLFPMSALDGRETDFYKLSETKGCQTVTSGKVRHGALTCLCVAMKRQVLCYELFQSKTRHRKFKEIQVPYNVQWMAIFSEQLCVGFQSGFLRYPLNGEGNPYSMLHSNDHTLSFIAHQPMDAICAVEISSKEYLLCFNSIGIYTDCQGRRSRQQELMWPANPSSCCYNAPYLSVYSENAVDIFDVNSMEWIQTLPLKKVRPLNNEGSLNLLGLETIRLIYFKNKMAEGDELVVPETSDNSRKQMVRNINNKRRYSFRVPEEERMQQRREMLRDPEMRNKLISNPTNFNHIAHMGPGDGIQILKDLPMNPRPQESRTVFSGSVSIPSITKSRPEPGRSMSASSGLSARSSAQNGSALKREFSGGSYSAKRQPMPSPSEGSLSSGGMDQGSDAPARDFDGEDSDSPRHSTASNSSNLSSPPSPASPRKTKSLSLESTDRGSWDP
MAP3K2, sequence (Q9Y2U5 whole entry): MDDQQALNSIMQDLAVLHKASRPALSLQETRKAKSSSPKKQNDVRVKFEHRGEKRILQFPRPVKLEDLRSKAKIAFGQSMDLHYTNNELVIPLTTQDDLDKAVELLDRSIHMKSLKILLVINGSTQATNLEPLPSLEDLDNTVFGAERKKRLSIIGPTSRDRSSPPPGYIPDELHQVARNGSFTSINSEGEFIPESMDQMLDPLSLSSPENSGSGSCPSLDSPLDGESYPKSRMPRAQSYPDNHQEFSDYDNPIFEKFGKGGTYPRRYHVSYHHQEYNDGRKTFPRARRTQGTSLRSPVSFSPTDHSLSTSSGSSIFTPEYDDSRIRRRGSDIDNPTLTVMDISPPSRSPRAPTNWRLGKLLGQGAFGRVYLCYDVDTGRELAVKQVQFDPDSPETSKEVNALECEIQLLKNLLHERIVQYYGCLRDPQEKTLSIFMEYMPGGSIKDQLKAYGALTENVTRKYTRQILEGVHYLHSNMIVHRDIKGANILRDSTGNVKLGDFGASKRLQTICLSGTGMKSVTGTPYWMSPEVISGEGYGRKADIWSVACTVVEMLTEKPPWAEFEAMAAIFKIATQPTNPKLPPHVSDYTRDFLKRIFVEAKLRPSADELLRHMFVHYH
PIK3CA(E545A), sequence (P42336 whole entry E545A): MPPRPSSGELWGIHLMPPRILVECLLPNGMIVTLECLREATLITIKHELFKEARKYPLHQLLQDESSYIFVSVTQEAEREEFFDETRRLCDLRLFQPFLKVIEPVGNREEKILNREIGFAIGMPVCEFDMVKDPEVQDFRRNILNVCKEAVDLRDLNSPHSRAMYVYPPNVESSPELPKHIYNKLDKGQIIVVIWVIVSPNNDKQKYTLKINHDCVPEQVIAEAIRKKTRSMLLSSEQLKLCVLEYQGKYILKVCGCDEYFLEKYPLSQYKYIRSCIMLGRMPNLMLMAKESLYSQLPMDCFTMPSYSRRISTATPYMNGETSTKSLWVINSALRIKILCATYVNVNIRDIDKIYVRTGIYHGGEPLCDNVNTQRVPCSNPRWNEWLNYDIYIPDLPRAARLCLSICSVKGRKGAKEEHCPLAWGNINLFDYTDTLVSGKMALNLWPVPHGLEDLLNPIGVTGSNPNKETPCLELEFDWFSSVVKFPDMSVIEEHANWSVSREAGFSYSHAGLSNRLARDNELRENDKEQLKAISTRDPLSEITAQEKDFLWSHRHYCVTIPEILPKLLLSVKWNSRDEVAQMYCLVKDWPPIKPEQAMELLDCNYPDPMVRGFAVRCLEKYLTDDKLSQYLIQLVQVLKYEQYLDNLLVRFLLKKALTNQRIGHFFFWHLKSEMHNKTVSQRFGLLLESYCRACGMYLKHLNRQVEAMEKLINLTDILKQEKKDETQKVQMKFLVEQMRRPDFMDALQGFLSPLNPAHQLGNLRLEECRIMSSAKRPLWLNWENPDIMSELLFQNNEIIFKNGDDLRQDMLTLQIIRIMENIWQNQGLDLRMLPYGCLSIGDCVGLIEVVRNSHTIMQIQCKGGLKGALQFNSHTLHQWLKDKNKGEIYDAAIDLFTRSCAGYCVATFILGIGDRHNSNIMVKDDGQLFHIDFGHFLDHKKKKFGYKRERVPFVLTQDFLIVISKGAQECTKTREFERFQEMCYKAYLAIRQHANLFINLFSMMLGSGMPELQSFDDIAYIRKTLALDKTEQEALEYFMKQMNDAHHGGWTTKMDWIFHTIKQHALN
RIPK2, sequence (O43353 whole entry): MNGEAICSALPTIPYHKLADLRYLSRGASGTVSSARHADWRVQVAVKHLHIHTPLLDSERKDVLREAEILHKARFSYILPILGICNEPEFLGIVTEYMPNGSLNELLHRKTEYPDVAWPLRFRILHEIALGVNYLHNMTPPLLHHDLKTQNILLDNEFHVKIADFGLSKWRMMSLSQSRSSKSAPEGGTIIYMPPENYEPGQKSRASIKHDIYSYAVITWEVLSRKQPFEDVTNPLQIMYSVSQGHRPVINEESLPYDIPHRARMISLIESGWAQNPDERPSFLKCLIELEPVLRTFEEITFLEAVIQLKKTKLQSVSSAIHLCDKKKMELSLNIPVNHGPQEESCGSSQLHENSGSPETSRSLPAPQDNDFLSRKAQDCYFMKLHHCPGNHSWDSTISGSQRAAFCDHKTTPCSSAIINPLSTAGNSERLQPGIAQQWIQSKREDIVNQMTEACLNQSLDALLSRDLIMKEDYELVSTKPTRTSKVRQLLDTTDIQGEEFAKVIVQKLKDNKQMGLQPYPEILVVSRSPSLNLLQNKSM

**Q.** Which remaining binding at 2 µM (TTK) does the source give for `CN1CCN(C(=O)c2ccc3cc(CCNc4ccnc5ccc(C#N)cc45)ccc3c2)CC1` [compound 6148, 4-((2-(6-(4-methylpiperazine-1-carbonyl)naphthalen-2-yl)ethyl)amino)quinoline-6-carbonitrile] here?
**A.** The remaining binding at 2 µM was 72%.

**Q.** And the remaining binding at 2 µM (BMPR1B)?
**A.** Its remaining binding at 2 µM is 70%.

**Q.** And the remaining binding at 2 µM (TSSK1B)?
**A.** The remaining binding at 2 µM was 100%.

**Q.** And the remaining binding at 2 µM (RIPK2)?
**A.** Its remaining binding at 2 µM is 100%.

**Q.** And the remaining binding at 2 µM [1]?
**A.** Its remaining binding at 2 µM is 88%.

**Q.** And the remaining binding at 2 µM (WNK1)?
**A.** The remaining binding at 2 µM was 72%.

**Q.** What about the remaining binding at 2 µM (PKN1) of the same compound?
**A.** The remaining binding at 2 µM was 100%.

**Q.** And the remaining binding at 2 µM (TESK1)?
**A.** The remaining binding at 2 µM was 96%.

**Q.** And the remaining binding at 2 µM (EPHA4)?
**A.** Its remaining binding at 2 µM is 93%.

**Q.** And the remaining binding at 2 µM (STK39)?
**A.** Its remaining binding at 2 µM is 44%.

**Q.** What about the remaining binding at 2 µM (VPS34 (PIK3C3)) of the same compound?
**A.** Its remaining binding at 2 µM is 68%.

**Q.** What about the remaining binding at 2 µM (AMPK-alpha1 (PRKAA1)) of the same compound?
**A.** Its remaining binding at 2 µM is 94%.

**Q.** And the remaining binding at 2 µM (FLT3-autoinhibited)?
**A.** Its remaining binding at 2 µM is 88%.

**Q.** What about the remaining binding at 2 µM (AXL) of the same compound?
**A.** The remaining binding at 2 µM was 95%.

**Q.** And the remaining binding at 2 µM (GRK3 (ADRBK2))?
**A.** The remaining binding at 2 µM was 73%.

**Q.** And the remaining binding at 2 µM (VEGFR2 (KDR))?
**A.** Its remaining binding at 2 µM is 82%.

**Q.** What about the remaining binding at 2 µM (PRKD2) of the same compound?
**A.** Its remaining binding at 2 µM is 88%.

**Q.** What about the Kd (CDK8) of the same compound?
**A.** Its Kd is 55 nM.

**Q.** And the remaining binding at 2 µM (AURKB)?
**A.** The remaining binding at 2 µM was 75%.

**Q.** What about the remaining binding at 2 µM (TRKB (NTRK2)) of the same compound?
**A.** The remaining binding at 2 µM was 57%.

**Q.** And the remaining binding at 2 µM (MRCKA (CDC42BPA))?
**A.** Its remaining binding at 2 µM is 98%.

**Q.** What about the remaining binding at 2 µM (LATS1) of the same compound?
**A.** The remaining binding at 2 µM was 76%.

**Q.** What about the remaining binding at 2 µM (PRKG2) of the same compound?
**A.** The remaining binding at 2 µM was 84%.

**Q.** And the remaining binding at 2 µM (PIK3CA(E545A))?
**A.** Its remaining binding at 2 µM is 73%.

**Q.** And the remaining binding at 2 µM (BLK)?
**A.** The remaining binding at 2 µM was 100%.

**Q.** What about the remaining binding at 2 µM (MARK1) of the same compound?
**A.** The remaining binding at 2 µM was 81%.

**Q.** And the remaining binding at 2 µM (CDC2L1 (CDK11B))?
**A.** Its remaining binding at 2 µM is 96%.

**Q.** What about the remaining binding at 2 µM (ERK5 (MAPK7)) of the same compound?
**A.** Its remaining binding at 2 µM is 94%.

**Q.** What about the remaining binding at 2 µM (PRKCE) of the same compound?
**A.** Its remaining binding at 2 µM is 98%.

**Q.** And the remaining binding at 2 µM (MKNK2)?
**A.** Its remaining binding at 2 µM is 71%.

**Q.** What about the remaining binding at 2 µM (MEK3 (MAP2K3)) of the same compound?
**A.** Its remaining binding at 2 µM is 87%.

**Q.** What about the remaining binding at 2 µM (TAOK2) of the same compound?
**A.** Its remaining binding at 2 µM is 77%.

**Q.** And the remaining binding at 2 µM (RET)?
**A.** Its remaining binding at 2 µM is 100%.

**Q.** And the remaining binding at 2 µM (BRAF)?
**A.** Its remaining binding at 2 µM is 84%.

**Q.** And the remaining binding at 2 µM (MAP3K2)?
**A.** The remaining binding at 2 µM was 68%.

**Q.** What about the remaining binding at 2 µM (FLT3(D835Y)) of the same compound?
**A.** The remaining binding at 2 µM was 73%.

**Q.** What about the remaining binding at 2 µM [2] of the same compound?
**A.** Its remaining binding at 2 µM is 93%.

**Q.** What about the “Time effects largely retained after wash-off” value (CDK8/19) of the same compound?
**A.** Its value is “at least 6 hrs”.
